The numbers were not newly measured in patent US20250312278A1, “BRIVARACETAM PHARMACEUTICAL COMPOSITION, PREPARATION METHOD THEREFOR AND USE THEREOF” (SHANGHAI BOCIMED PHARMACEUTICAL CO., LTD., priority 2020, published 2025), which cites them from elsewhere.

What is called solubility is how much of the substance goes into solution per volume.

The conditions of series [1]: in vivo.

Values after ≈ are worked out from the molar mass of the structure shown. Where two headings read alike, the source gives them in different places.

`CCC[C@@H]1CC(=O)N(C(CC)C(N)=O)C1` (stereo partly drawn) [Brivaracetam, (2S)-2-[(4R)-2-oxo-4-propyltetrahydron-1H-pyrro-1-yl] butanamide]: the terminal half-life period in series [1] is 9 h. Besides, the solubility runs as follows: (buffer solution with a pH of 4.5) 850 mg/mL (≈ 4000 mM); (buffer solution with a pH of 7.4) 840 mg/mL (≈ 3960 mM); (hydrochloric acid solution with a pH of 1.2) 850 mg/mL (≈ 4000 mM); (water) 700 mg/mL (≈ 3300 mM).
